Measurements published in the NIST ThermoML archive (doi:10.1021/acs.jced.5b00385).
± gives the expanded uncertainty stated by the source.

Conditions: Liquid, Vibrating tube method

FCC(F)(F)F [1,1,1,2-tetrafluoroethane]
Conditions	mass density [kg/m3]
283.46 K, 1000 kPa	1262.57 ± 0.38
283.46 K, 5000 kPa	1279.58 ± 0.4
283.47 K, 10000 kPa	1298.12 ± 0.44
283.47 K, 20000 kPa	1329.18 ± 0.54
283.47 K, 40000 kPa	1377.11 ± 0.84
283.47 K, 60000 kPa	1414.44 ± 1.2
283.47 K, 80000 kPa	1445.46 ± 1.7
303.37 K, 10000 kPa	1236.85 ± 0.42
303.37 K, 20000 kPa	1275.77 ± 0.5
303.38 K, 1000 kPa	1188.07 ± 0.37
303.38 K, 5000 kPa	1212.13 ± 0.38
303.38 K, 40000 kPa	1332.36 ± 0.78
303.38 K, 60000 kPa	1374.64 ± 1.1
303.38 K, 80000 kPa	1408.98 ± 1.7
323.15 K, 3000 kPa	1119.19 ± 0.37
323.16 K, 5000 kPa	1136.38 ± 0.37
323.16 K, 10000 kPa	1170.84 ± 0.4
323.16 K, 20000 kPa	1220.65 ± 0.48
323.16 K, 40000 kPa	1287.71 ± 0.75
323.16 K, 60000 kPa	1335.49 ± 1.1
323.16 K, 80000 kPa	1373.39 ± 1.7
342.97 K, 3000 kPa	1014.76 ± 0.36
342.97 K, 5000 kPa	1045.25 ± 0.36
342.98 K, 10000 kPa	1097.42 ± 0.39
342.98 K, 20000 kPa	1162.91 ± 0.46
342.98 K, 40000 kPa	1242.75 ± 0.73
342.98 K, 80000 kPa	1338.34 ± 1.7
342.99 K, 60000 kPa	1296.65 ± 1.1
362.68 K, 5000 kPa	922.4 ± 0.36
362.68 K, 10000 kPa	1013.83 ± 0.4
362.68 K, 20000 kPa	1102.6 ± 0.47
362.68 K, 40000 kPa	1197.86 ± 0.73
362.68 K, 60000 kPa	1258.47 ± 1.1
362.68 K, 80000 kPa	1304.15 ± 1.8

CCCCC(CC)COC(C)=O (stereo not drawn) [2-ethylhexyl acetate]
Conditions	mass density [kg/m3]
283.45 K, 80000 kPa	925.84 ± 1
283.45 K, 90000 kPa	930.33 ± 1.1
283.45 K, 100000 kPa	934.63 ± 1.1
283.46 K, 100 kPa	880.38 ± 0.91
283.46 K, 1000 kPa	881.05 ± 0.91
283.46 K, 40000 kPa	905.65 ± 0.97
283.46 K, 50000 kPa	911.06 ± 0.99
283.46 K, 60000 kPa	916.18 ± 1
283.46 K, 70000 kPa	921.22 ± 1
283.47 K, 3000 kPa	882.48 ± 0.91
283.47 K, 5000 kPa	883.9 ± 0.91
283.47 K, 30000 kPa	899.95 ± 0.95
283.48 K, 10000 kPa	887.37 ± 0.92
283.48 K, 15000 kPa	890.63 ± 0.93
283.48 K, 20000 kPa	893.87 ± 0.94
283.48 K, 25000 kPa	896.91 ± 0.95
293.44 K, 1000 kPa	872.61 ± 0.9
293.44 K, 3000 kPa	874.12 ± 0.9
293.45 K, 5000 kPa	875.6 ± 0.91
293.45 K, 10000 kPa	879.24 ± 0.92
293.45 K, 15000 kPa	882.73 ± 0.92
293.45 K, 20000 kPa	886.08 ± 0.93
293.45 K, 25000 kPa	889.32 ± 0.94
293.45 K, 30000 kPa	892.46 ± 0.95
293.45 K, 40000 kPa	898.43 ± 0.97
293.45 K, 60000 kPa	909.42 ± 1
293.45 K, 70000 kPa	914.46 ± 1
293.45 K, 80000 kPa	919.33 ± 1
293.45 K, 100000 kPa	928.38 ± 1.1
293.46 K, 100 kPa	871.89 ± 0.9
293.46 K, 50000 kPa	904.07 ± 0.99
293.46 K, 90000 kPa	923.91 ± 1.1
303.38 K, 1000 kPa	863.7 ± 0.89
303.39 K, 3000 kPa	865.32 ± 0.89
303.39 K, 15000 kPa	874.36 ± 0.92
303.39 K, 40000 kPa	890.82 ± 0.97
303.4 K, 5000 kPa	866.89 ± 0.9
303.4 K, 10000 kPa	870.7 ± 0.91
303.4 K, 20000 kPa	877.88 ± 0.93
303.4 K, 25000 kPa	881.31 ± 0.94
303.4 K, 30000 kPa	884.55 ± 0.95
303.4 K, 50000 kPa	896.67 ± 0.98
303.4 K, 60000 kPa	902.22 ± 1
303.4 K, 70000 kPa	907.5 ± 1
303.4 K, 80000 kPa	912.5 ± 1
303.4 K, 90000 kPa	917.28 ± 1.1
303.41 K, 100 kPa	862.94 ± 0.89
303.41 K, 100000 kPa	921.87 ± 1.1
313.34 K, 100 kPa	854.53 ± 0.88
313.34 K, 1000 kPa	855.28 ± 0.88
313.34 K, 3000 kPa	857.04 ± 0.89
313.34 K, 5000 kPa	858.73 ± 0.89
313.34 K, 10000 kPa	862.77 ± 0.9
313.34 K, 15000 kPa	866.66 ± 0.91
313.34 K, 20000 kPa	870.34 ± 0.92
313.34 K, 25000 kPa	873.92 ± 0.93
313.34 K, 30000 kPa	877.34 ± 0.94
313.34 K, 40000 kPa	883.88 ± 0.96
313.34 K, 50000 kPa	889.98 ± 0.98
313.34 K, 60000 kPa	895.7 ± 1
313.34 K, 70000 kPa	901.14 ± 1
313.34 K, 80000 kPa	906.27 ± 1.1
313.34 K, 100000 kPa	915.93 ± 1.1
313.35 K, 90000 kPa	911.19 ± 1.1
323.15 K, 100 kPa	845.74 ± 0.87
323.15 K, 50000 kPa	882.8 ± 0.98
323.15 K, 60000 kPa	888.76 ± 1
323.15 K, 70000 kPa	894.49 ± 1
323.15 K, 80000 kPa	899.83 ± 1.1
323.15 K, 90000 kPa	904.91 ± 1.1
323.15 K, 100000 kPa	909.78 ± 1.1
323.16 K, 1000 kPa	846.56 ± 0.87
323.16 K, 3000 kPa	848.36 ± 0.88
323.16 K, 5000 kPa	850.14 ± 0.88
323.16 K, 10000 kPa	854.42 ± 0.89
323.16 K, 25000 kPa	866.13 ± 0.93
323.16 K, 30000 kPa	869.71 ± 0.94
323.16 K, 40000 kPa	876.47 ± 0.96
323.17 K, 15000 kPa	858.49 ± 0.91
323.17 K, 20000 kPa	862.39 ± 0.92
332.99 K, 100 kPa	836.98 ± 0.86
333 K, 1000 kPa	837.85 ± 0.87
333 K, 3000 kPa	839.78 ± 0.87
333 K, 5000 kPa	841.66 ± 0.88
333 K, 10000 kPa	846.16 ± 0.89
333 K, 15000 kPa	850.47 ± 0.9
333 K, 20000 kPa	854.55 ± 0.91
333 K, 25000 kPa	858.45 ± 0.92
333.01 K, 30000 kPa	862.21 ± 0.93
333.01 K, 40000 kPa	869.27 ± 0.96
333.01 K, 50000 kPa	875.85 ± 0.98
333.01 K, 60000 kPa	882.02 ± 1
333.01 K, 70000 kPa	888.07 ± 1
333.01 K, 80000 kPa	893.58 ± 1.1
333.01 K, 90000 kPa	898.82 ± 1.1
333.01 K, 100000 kPa	903.81 ± 1.1
342.95 K, 100 kPa	828.32 ± 0.86
342.96 K, 1000 kPa	829.27 ± 0.86
342.96 K, 3000 kPa	831.31 ± 0.86
342.96 K, 5000 kPa	833.3 ± 0.87
342.96 K, 10000 kPa	838.06 ± 0.88
342.96 K, 15000 kPa	842.59 ± 0.89
342.96 K, 20000 kPa	846.9 ± 0.91
342.97 K, 25000 kPa	851 ± 0.92
342.97 K, 30000 kPa	854.91 ± 0.93
342.97 K, 40000 kPa	862.31 ± 0.96
342.97 K, 50000 kPa	869.15 ± 0.98
342.97 K, 60000 kPa	875.57 ± 1
342.97 K, 70000 kPa	881.64 ± 1
342.97 K, 80000 kPa	887.28 ± 1.1
342.97 K, 90000 kPa	892.73 ± 1.1
342.97 K, 100000 kPa	897.85 ± 1.1
352.78 K, 100 kPa	819.64 ± 0.85
352.79 K, 1000 kPa	820.65 ± 0.85
352.79 K, 3000 kPa	822.83 ± 0.86
352.79 K, 5000 kPa	824.93 ± 0.86
352.79 K, 10000 kPa	830 ± 0.87
352.79 K, 15000 kPa	834.75 ± 0.89
352.79 K, 20000 kPa	839.27 ± 0.9
352.79 K, 25000 kPa	843.56 ± 0.91
352.79 K, 30000 kPa	847.66 ± 0.93
352.79 K, 40000 kPa	855.34 ± 0.96
352.79 K, 50000 kPa	862.46 ± 0.98
352.79 K, 60000 kPa	869.08 ± 1
352.79 K, 70000 kPa	875.42 ± 1
352.79 K, 90000 kPa	886.84 ± 1.1
352.79 K, 100000 kPa	892.14 ± 1.1
352.8 K, 80000 kPa	881.29 ± 1.1
362.64 K, 100 kPa	810.91 ± 0.84
362.64 K, 1000 kPa	811.97 ± 0.84
362.64 K, 3000 kPa	814.28 ± 0.85
362.64 K, 5000 kPa	816.51 ± 0.85
362.64 K, 10000 kPa	821.85 ± 0.87
362.64 K, 15000 kPa	826.87 ± 0.88
362.64 K, 20000 kPa	831.61 ± 0.9
362.64 K, 25000 kPa	836.09 ± 0.91
362.64 K, 30000 kPa	840.38 ± 0.92
362.64 K, 50000 kPa	855.78 ± 0.98
362.64 K, 60000 kPa	862.65 ± 1
362.64 K, 70000 kPa	869.14 ± 1
362.64 K, 80000 kPa	875.25 ± 1.1
362.64 K, 90000 kPa	880.97 ± 1.1
362.64 K, 100000 kPa	886.45 ± 1.1
362.65 K, 40000 kPa	848.4 ± 0.95
